Measured values published in US9145351B2, “Azole derivatives, methods for producing the same, intermediate thereof, agro-horticultural agents” (KUREHA CORPORATION, priority 2009, dated 2015).
Where two headings read alike, the source gives them in different places.

Columns and labels:
Assay type in all cases: cell-based
[1] = tested on: Phaeosphaeria nodorum; assay: Plate medium fungicidal assay, wheat Septoria nodorum blotch P.n (Experimental Example 5); conditions: for inhibition at 5 µg/mL / inhibition at 50 µg/mL: Parastagonospora nodorum
Protocol: (§1) In this Experimental Example, the fungicidal effects of the inventive compounds on various phytopathogenic fungi for plants and hazardous microorganism for industrial materials were examined by the methods described below. Each inventive compound was dissolved in 2 ml of dimethyl sulfoxide. 0.6 ml of this solution was added to 60 nil of a PDA medium (potato dextrose agar medium) at about 60 degrees C., which was mixed thoroughly in a 100-ml conical flask, and poured into a dish, where it was solidified, thereby obtaining a plate medium containing the inventive compound at 50 mg/L and 5 mg/L. On the other hand, a subject microorganism previously cultured on a plate medium was cut out using a cork borer whose diameter was 4 mm, and inoculated to the test compound-containing plate medium described above. […] The growth degree of the microorganism on the test compound-containing plate medium thus observed was compared with the growth degree of the microorganism in the untreated group, and % mycelial growth inhibition was calculated by the following equation. R=100(dc−dt)/dc wherein R=% mycelial extension inhibition, dc=flora diameter in untreated plate, dt=flora diameter in treated plate. The results obtained as described above were evaluated as one of the 5 grades according to the following criteria. […] Wheat Septoria nodorum blotch (Phaeosphaeria nodorum) P.n

[2] = tested on: Fusarium graminearum; assay: microbe, parasite or virus in culture; conditions: for inhibition at 5 µg/mL / inhibition at 50 µg/mL: Fusarium graminearum
[3] = tested on: Ustilago nuda; assay: Plate medium fungicidal assay, barley loose smut U.n (Experimental Example 5); conditions: for inhibition at 5 µg/mL / inhibition at 50 µg/mL: Ustilago nuda
Protocol: as §1, with “Barley loose smut (Ustilago nuda) U.n” for “Wheat Septoria nodorum blotch (Phaeosphaeria nodorum) P.n”

[4] = tested on: Botritis cinerea; assay: Plate medium fungicidal assay, gray mold B.c (Experimental Example 5)
Protocol: as §1, with “Gray mold (Botritis cinerea) B.c” for “Wheat Septoria nodorum blotch (Phaeosphaeria nodorum) P.n”

[5] = tested on: Giberella fujikuroi; assay: Plate medium fungicidal assay, rice bakanae disease G.f (Experimental Example 5)
Protocol: as §1, with “Rice bakanae disease (Giberella fujikuroi) G.f” for “Wheat Septoria nodorum blotch (Phaeosphaeria nodorum) P.n”

[6] = tested on: Sclerotinia sclerotiorum; assay: Plate medium fungicidal assay, Sclerotinia rot S.s (Experimental Example 5); conditions: for inhibition at 5 µg/mL / inhibition at 50 µg/mL: Sclerotinia sclerotiorum
Protocol: as §1, with “Sclerotinia rot (Sclerotinia sclerotiorum) S.s” for “Wheat Septoria nodorum blotch (Phaeosphaeria nodorum) P.n”

[7] = plate medium containing compound at 5 mg/L
[8] = plate medium containing compound at 50 mg/L
[9] = plate medium, 5 mg/L, read-out: growth inhibition grade P.n
[10] = plate medium, 50 mg/L, read-out: growth inhibition grade P.n
[11] = read-out: growth inhibition grade F.g
[12] = plate medium, 5 mg/L, read-out: growth inhibition grade U.n
[13] = plate medium, 50 mg/L, read-out: growth inhibition grade U.n
[14] = plate medium, 5 mg/L, read-out: growth inhibition grade B.c
[15] = plate medium, 50 mg/L, read-out: growth inhibition grade B.c
[16] = plate medium, 5 mg/L, read-out: growth inhibition grade G.f
[17] = plate medium, 50 mg/L, read-out: growth inhibition grade G.f
[18] = plate medium, 5 mg/L, read-out: growth inhibition grade S.s
[19] = plate medium, 50 mg/L, read-out: growth inhibition grade S.s
[20] = read-out: Growth inhibition grade, F.g

Row | Compound | inhibition at 5 µg/mL [1, 9] [%] | inhibition at 50 µg/mL [1, 10] [%] | inhibition at 5 µg/mL [2, 11] [%] | inhibition at 50 µg/mL [2, 11] [%] | inhibition at 5 µg/mL [3, 12] [%] | inhibition at 50 µg/mL [3, 13] [%] | inhibition at 5 µg/mL [4, 14] [%] | inhibition at 50 µg/mL [4, 15] [%] | inhibition at 5 µg/mL [5, 16] [%] | inhibition at 50 µg/mL [5, 17] [%] | inhibition at 5 µg/mL [6, 18] [%] | inhibition at 50 µg/mL [6, 19] [%] | also measured
1 | C[C@]1(CCl)CC[C@@H](Cc2ccc(F)cc2F)[C@]1(O)Cn1cncn1 (relative stereo) [Compound I-88] |  |  |  |  |  |  |  |  |  |  |  |  | Growth inhibition grade, P.n [1, 7]: 5 (% Mycerial growth inhibition of 80% or higher); Growth inhibition grade, P.n [1, 8]: 5 (% Mycerial growth inhibition of 80% or higher); Growth inhibition grade, F.g [2, 7]: 5 (% Mycerial growth inhibition of 80% or higher); Growth inhibition grade, F.g [2, 8]: 5 (% Mycerial growth inhibition of 80% or higher); Growth inhibition grade, U.n [3, 7]: 5 (% Mycerial growth inhibition of 80% or higher); Growth inhibition grade, U.n [3, 8]: 5 (% Mycerial growth inhibition of 80% or higher); Growth inhibition grade, B.c [4, 7]: 5 (% Mycerial growth inhibition of 80% or higher); Growth inhibition grade, B.c [4, 8]: 5 (% Mycerial growth inhibition of 80% or higher); Growth inhibition grade, G.f [5, 7]: 5 (% Mycerial growth inhibition of 80% or higher); Growth inhibition grade, G.f [5, 8]: 5 (% Mycerial growth inhibition of 80% or higher); Growth inhibition grade, S.s [6, 7]: 5 (% Mycerial growth inhibition of 80% or higher); Growth inhibition grade, S.s [6, 8]: 5 (% Mycerial growth inhibition of 80% or higher)
2 | C[C@@]1(CCl)CC[C@H](Cc2ccc(Cl)cc2)[C@]1(O)Cn1cncn1 (racemic) [Compound I-401, (1RS,2RS,5RS)-5-(4-chlorobenzyl)-2-chloromethyl-2-methyl-1-[1,2,4]triazol-1-ylmethylcyclopentanol] | > 80 | > 80 | > 80 | > 80 | 60 to 80 | > 80 | > 80 | > 80 | > 80 | > 80 | > 80 | > 80 | 
3 | C[C@]1(CBr)CC[C@@H](Cc2ccccc2)[C@]1(O)Cn1cncn1 (racemic) [Compound I-602, (1RS,2SR,5SR)-2-bromomethyl-5-benzyl-2-methyl-1-(1H-1,2,4-triazol-1-ylmethyl)cyclopentanol] | 40 to 60 | > 80 | > 80 | > 80 | 60 to 80 | > 80 | 60 to 80 | > 80 | > 80 | > 80 | > 80 | > 80 | 
4 | O[C@]1(Cn2cncn2)[C@@H](Cc2ccc(Cl)cc2)CC[C@@H]1C(F)(F)F (racemic) [Compound I-365, (1RS,2SR,5RS)-5-(4-chlorobenzyl)-2-trifluoromethyl-1-(1H-1,2,4-triazol-1-ylmethyl)cyclopentanol] | 40 to 60 | > 80 | 20 to 40 | > 80 | 20 to 40 | > 80 | < 20 | > 80 | < 20 | > 80 | 20 to 40 | > 80 | 
5 | C[C@]1(CCl)CC[C@@H](Cc2ccccc2)[C@]1(O)Cn1cncn1 (racemic) [Compound I-73, (1RS,2SR,5SR)-2-chloromethyl-5-benzyl-2-methyl-1-(1H-1,2,4-triazol-1-ylmethyl)cyclopentanol] | > 80 | > 80 | > 80 | > 80 | > 80 | > 80 | > 80 | > 80 | > 80 | > 80 | > 80 | > 80 | inhibition at 5 µg/mL ([1]; plate medium containing compound at 5 mg/L, read-out: Growth inhibition grade, P.n): > 80%; inhibition at 50 µg/mL ([1]; plate medium containing compound at 50 mg/L, read-out: Growth inhibition grade, P.n): > 80%; inhibition at 5 µg/mL [2, 20]: > 80%; inhibition at 50 µg/mL [2, 20]: > 80%; inhibition at 5 µg/mL ([3]; plate medium containing compound at 5 mg/L, read-out: Growth inhibition grade, U.n): > 80%; inhibition at 50 µg/mL ([3]; plate medium containing compound at 50 mg/L, read-out: Growth inhibition grade, U.n): > 80%; inhibition at 5 µg/mL ([4]; plate medium containing compound at 5 mg/L, read-out: Growth inhibition grade, B.c): > 80%; inhibition at 50 µg/mL ([4]; plate medium containing compound at 50 mg/L, read-out: Growth inhibition grade, B.c): > 80%; inhibition at 5 µg/mL ([5]; plate medium containing compound at 5 mg/L, read-out: Growth inhibition grade, G.f): > 80%; inhibition at 50 µg/mL ([5]; plate medium containing compound at 50 mg/L, read-out: Growth inhibition grade, G.f): > 80%; inhibition at 5 µg/mL ([6]; plate medium containing compound at 5 mg/L, read-out: Growth inhibition grade, S.s): > 80%; inhibition at 50 µg/mL ([6]; plate medium containing compound at 50 mg/L, read-out: Growth inhibition grade, S.s): > 80%
6 | C[C@]1(CCl)CC[C@@H](Cc2ccc(Cl)cc2)[C@]1(O)Cn1ccnc1 (racemic) [Compound I-244, (1RS,2SR,5SR)-5-(4-chlorobenzyl)-2-chloromethyl-2-methyl-1-imidazol-1-ylmethylcyclopentanol] | > 80 | > 80 | > 80 | > 80 | > 80 | > 80 | 60 to 80 | > 80 | > 80 | > 80 | > 80 | > 80 | 
